# Reference: US11746100B2 (GLOBAL BLOOD THERAPEUTICS, INC., priority 2020, dated 2023)
# Biological target: T1, human ferroportin (Homo sapiens, UniProt Q9NP59)
# T1 construct: luciferase reporter (read with the Nano-Glo Luciferase Assay System); expressed in transfected cells; host or cells: CHO cells, stably transfected, expression induced with doxycycline
# T1 sequence (Q9NP59 1-571): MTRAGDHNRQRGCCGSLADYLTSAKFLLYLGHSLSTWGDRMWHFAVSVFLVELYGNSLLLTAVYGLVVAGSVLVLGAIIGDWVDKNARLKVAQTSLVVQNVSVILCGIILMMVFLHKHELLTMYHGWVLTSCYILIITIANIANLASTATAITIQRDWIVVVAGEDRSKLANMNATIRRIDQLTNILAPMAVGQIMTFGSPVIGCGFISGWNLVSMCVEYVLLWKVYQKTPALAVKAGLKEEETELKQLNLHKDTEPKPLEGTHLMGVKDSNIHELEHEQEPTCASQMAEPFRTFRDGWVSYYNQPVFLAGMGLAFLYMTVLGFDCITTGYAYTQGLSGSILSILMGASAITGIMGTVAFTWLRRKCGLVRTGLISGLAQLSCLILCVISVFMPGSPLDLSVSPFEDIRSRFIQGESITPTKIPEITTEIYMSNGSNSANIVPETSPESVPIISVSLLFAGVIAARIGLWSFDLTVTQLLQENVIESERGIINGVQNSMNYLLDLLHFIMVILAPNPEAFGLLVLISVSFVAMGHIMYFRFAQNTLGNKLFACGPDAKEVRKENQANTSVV
# Experiment: Biological in-vitro ferroportin internalization assay (luciferase reporter)
# Type: cell-based
# Details: average pEC50; stably-transfected CHO cell line expressing human ferroportin tagged to a luciferase reporter; 6 h incubation with test compound
# Outline: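 Read-out is Nano-Glo luciferase signal after 6 h compound exposure, with average pEC50 derived. Cells are a stable CHO line carrying luciferase-tagged human ferroportin, pre-loaded 24 h with ferric ammonium citrate and doxycycline-induced for 24 h.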
row,SMILES,pEC50
1,"CN(CC(=O)NC(C)(C)C)c1nc(-c2cc(OCCF)ccn2)nc2c1CCC2 [Compound 241, N-tert-butyl-2-({2-[4-(2-fluoroethoxy)pyridin-2-yl]-5H,6H,7H-cyclopenta[d]pyrimidin-4-yl}(methyl)amino)acetamide]",8
2,"CN(CC(=O)NC(C)(C)C)c1nc(-c2cc(OC3COC3)ccn2)nc2c1CCC2 [Compound 245, N-tert-butyl-2-[methyl({2-[4-(oxetan-3-yloxy)pyridin-2-yl]-5H,6H,7H-cyclopenta[d]pyrimidin-4-yl})amino]acetamide]",7.7
3,"CN(CC(=O)Nc1cccc(F)c1)c1nc(-c2cc(OCCN3CCCC3)ccn2)nc2c1CCC2 [Compound 252, N-(3-fluorophenyl)-2-[methyl(2-{4-[2-(pyrrolidin-1-yl)ethoxy]pyridin-2-yl}-5H,6H,7H-cyclopenta[d]pyrimidin-4-yl)amino]acetamide]",7.9
4,"COc1ccc(NC(=O)CN(C)c2nc(-c3cc(OC4COC4)ccn3)nc3c2CCC3)cn1 [Compound 253, N-(6-methoxypyridin-3-yl)-2-[methyl({2-[4-(oxetan-3-yloxy)pyridin-2-yl]-5H,6H,7H-cyclopenta[d]pyrimidin-4-yl})amino]acetamide]",7.6
5,"CN(CC(=O)Nc1cnn(C)c1)c1nc(-c2cc(OC3COC3)ccn2)nc2c1CCC2 [Compound 254, 2-[methyl({2-[4-(oxetan-3-yloxy)pyridin-2-yl]-5H,6H,7H-cyclopenta[d]pyrimidin-4-yl})amino]-N-(1-methyl-1H-pyrazol-4-yl)acetamide]",7

# Results, then the compound that gave them:
row,pEC50,SMILES
1,7.1,"CN(CC(=O)Nc1cncc(F)c1)c1nc(-c2cc3ccccc3cn2)nc2c1CCC2 [Compound 240, N-(5-fluoropyridin-3-yl)-2-{[2-(isoquinolin-3-yl)-5H,6H,7H-cyclopenta[d]pyrimidin-4-yl](methyl)amino}acetamide]"
2,7.7,"COc1ccc(NC(=O)CN(C)c2nc(-c3cc(OCCF)ccn3)nc3c2CCC3)cn1 [Compound 242, 2-({2-[4-(2-fluoroethoxy)pyridin-2-yl]-5H,6H,7H-cyclopenta[d]pyrimidin-4-yl}(methyl)amino)-N-(6-methoxypyridin-3-yl)acetamide]"
3,7.4,"CN(CC(=O)Nc1cnn(C)c1)c1nc(-c2cc(OCCF)ccn2)nc2c1CCC2 [Compound 243, 2-({2-[4-(2-fluoroethoxy)pyridin-2-yl]-5H,6H,7H-cyclopenta[d]pyrimidin-4-yl}(methyl)amino)-N-(1-methyl-1H-pyrazol-4-yl)acetamide]"
4,6.4,"COc1ccc(NC(=O)CN(C)c2nc(-c3cc4cccnc4cn3)nc3c2CCC3)cn1 [Compound 244, N-(6-methoxypyridin-3-yl)-2-{methyl[2-(1,7-naphthyridin-6-yl)-5H,6H,7H-cyclopenta[d]pyrimidin-4-yl]amino}acetamide]"
5,7.4,"COc1ccc(NC(=O)[C@@H](C)N(C)c2nc(-c3cc4ccccc4cn3)nc3c2CCC3)cn1 [Compound 250, (2R)-2-{[2-(isoquinolin-3-yl)-5H,6H,7H-cyclopenta[d]pyrimidin-4-yl](methyl)amino}-N-(6-methoxypyridin-3-yl)propanamide]"
6,8.3,"C[C@H](C(=O)Nc1cccc(F)c1)N(C)c1nc(-c2cc(OCCO)ccn2)nc2c1CCC2 [Compound 251, (2R)—N-(3-fluorophenyl)-2-({2-[4-(2-hydroxyethoxy)pyridin-2-yl]-5H,6H,7H-cyclopenta[d]pyrimidin-4-yl}(methyl)amino)propanamide]"
7,6.9,"CN(CC(=O)N1CCCCC1)c1nc(-c2cc3ccccc3cn2)nc2c1CCC2 [Compound 255, 2-{[2-(isoquinolin-3-yl)-5H,6H,7H-cyclopenta[d]pyrimidin-4-yl](methyl)amino}-1-(piperidin-1-yl)ethan-1-one]"
8,6.6,"CN1CCN(C(=O)CN(C)c2nc(-c3cc4ccccc4cn3)nc3c2CCC3)CC1 [Compound 256, 2-{[2-(isoquinolin-3-yl)-5H,6H,7H-cyclopenta[d]pyrimidin-4-yl](methyl)amino}-1-(4-methylpiperazin-1-yl)ethan-1-one]"
